By IC50 is commonly meant the concentration that gives 50% inhibition.

The values that follow come from US9776979B2, “EBI2 modulators” (Sanford-Burnham Medical Research Institute, priority 2013, dated 2017).

Chain of EBI2 (P32249 whole entry): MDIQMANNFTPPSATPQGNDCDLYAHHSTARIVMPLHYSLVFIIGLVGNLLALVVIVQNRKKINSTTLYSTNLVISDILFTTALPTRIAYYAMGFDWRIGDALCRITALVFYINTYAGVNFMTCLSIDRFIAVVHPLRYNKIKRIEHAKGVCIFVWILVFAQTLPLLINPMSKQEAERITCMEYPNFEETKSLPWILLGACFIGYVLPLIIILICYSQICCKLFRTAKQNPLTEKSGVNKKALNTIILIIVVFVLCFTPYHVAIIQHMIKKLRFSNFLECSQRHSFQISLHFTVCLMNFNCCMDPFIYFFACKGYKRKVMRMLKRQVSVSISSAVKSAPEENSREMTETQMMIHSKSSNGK

The first assay addresses EBI2 (Homo sapiens, UniProt P32249). Nature of the assay: Cell-based luminescent assay (EBI2 modulation).
Conditions: not given
The protocol: Cell-Based Luminescent Assay
To assess EBI2 modulation, the compounds described herein were assayed in the following cell-based luminescent assay:
1) Plated 600 cells/well in 4 uL of assay media into columns 1-48 of a 1536-well assay plate, using a liquid dispenser.
2) Centrifuged plates at 1000 rpm for 1 minute and covered with lids.
3) Incubated overnight at 37° C., 100% relative humidity, 5% CO2.
1) Centrifuged compound plates containing compounds described herein at 500 rpm for 1 minute.
2) Added compounds into assay plate col 5-48 to final concentration 4-5 uM. Added matching amount of DMSO to positive and negative control wells in columns 1-4.
3) Dispensed 2 ul/well of assay media to columns 1-2 for the positive control wells.
4) Added 2 ul/well of 400 nM 7a,25-OHC (final assay concentration=80 nM) in assay media to columns 3-48 for the negative control and test compound wells.
5) Centrifuged plates at 1000 rpm for 1 minute and re-lid plates.
6) Incubated plates at 37° C., 100% relative humidity, 5% CO2 for 60 minutes.
7) Following 60 minute incubation, delivered 2.5 uL of Detection Reagent solution to each assay plate (Columns 1-48) using a liquid handler.
8) Centrifuged plates at 2000 rpm for 2 minutes and re-lid plates.
9) Incubated plates for 60 minutes at 25 degrees in the dark.
10) Read plates using the Viewlux, Envision or other suitable plate reader using a luminescence detection.
The experimental values were normalized by the difference between values from neutral and stimulator control wells in each plate. Then normalized data was corrected to remove systematic plate patterns due to artifacts such as dispensing tip issues etc.
`O=C(/C=C/c1ccc(Br)cc1)N1CCC(Nc2ccccc2)CC1` [Compound C13, (2E)-3-(4-bromophenyl)-1-[4-(phenylamino)piperidyl]prop-2-en-1-one] had an IC50 of less than 100 nM.

For `O=C(/C=C/c1ccc(Br)cc1)N1CCC(Nc2cc(F)cc(F)c2)CC1` [Compound C15, (2E)-1-{4-[(3,5-difluorophenyl)amino]piperidyl}-3-(4-bromophenyl)prop-2-en-1-one], the IC50 is less than 100 nM.

Still in this assay, the particulars now being: cell-based luminescence; 7a,25-OHC final assay concentration 80 nM; 60 minutes incubation; read-out: IC50.
Take “4-{[2-fluoro-4-(trifluoromethyl)phenyl]carbonyl}piperazinyl 5-(trifluoromethyl)indol-2-yl ketone [Compound C360]”: the IC50 was less than 100 nM.

For the molecule “4-{[3,5-bis(trifluoromethyl)phenyl]carbonyl}piperazinyl 5-(trifluoromethyl)indol-2-yl ketone [Compound C330]”, the IC50 is less than 100 nM.

Turning to “4-{[3-fluoro-4-(trifluoromethyl)phenyl]methyl}piperazinyl 5-(trifluoromethyl)indol-2-yl ketone [Compound C389]”, the IC50 was less than 100 nM.

On to “4-{[4-((2E)-3-phenylprop-2-enoyl)piperazinyl]methyl}benzenecarbonitrile [Compound C335]”, for which the IC50 is less than 100 nM.

As to “4-{[4-fluoro-2-(trifluoromethyl)phenyl]methyl}piperazinyl 5-(trifluoromethyl)indol-2-yl ketone [Compound C418]”, the IC50 lay within 100 to 500 nM.

In the case of “4-{[4-fluoro-3-(trifluoromethyl)phenyl]methyl}piperazinyl 5-(trifluoromethyl)indol-2-yl ketone [Compound C415]”, the IC50 fell in the range of 100 to 500 nM.

With “4-{[(4-bromophenyl)sulfonyl]amino}piperidyl 5-chloroindol-2-yl ketone [Compound C306]”, the IC50 was less than 100 nM.

As to “5-bromoindol-2-yl 4-[(4-chlorophenyl)carbonyl]piperazinyl ketone [Compound C85]”, the IC50 is less than 100 nM.

Take “5-bromoindol-2-yl 4-[(4-chlorophenyl)methyl]piperazinyl ketone [Compound C303]”: the IC50 is less than 100 nM.

On to “5-chloroindol-2-yl 4-[(4-(3-pyridyl)phenyl)carbonyl]piperazinyl ketone [Compound C254]”, for which the IC50 was less than 100 nM.

Regarding “5-chloroindol-2-yl 4-{[4-(4-chlorophenyl)phenyl]sulfonyl}piperazinyl ketone [Compound C172]”, the IC50 is 500 to 5000 nM.

With “5-methylindol-2-yl 4-(3-pyridylmethyl)piperazinyl ketone [Compound C458]”, the IC50 fell in the range of 100 to 500 nM.

As to “5-methylindol-2-yl 4-(phenylethyl)piperazinyl ketone [Compound C148]”, the 50% inhibitory concentration (IC50) was less than 100 nM.

As to “5-methylindol-2-yl 4-benzylpiperazinyl ketone [Compound C376]”, the IC50 is less than 100 nM.

Turning to “6-bromoindol-2-yl 4-[(4-chlorophenyl)carbonyl]piperazinyl ketone [Compound C239]”, the IC50 was less than 100 nM.

“6-bromoindol-2-yl 4-[(4-chlorophenyl)methyl]piperazinyl ketone [Compound C471]”: the IC50 is 100 to 500 nM.

Consider “6-fluoroindol-2-yl 4-[(4-fluorophenyl)carbonyl]piperazinyl ketone [Compound C425]”, for which the concentration for half-maximal inhibition (IC50) was in the range of 100 to 500 nM.

Regarding `O=C(/C=C/c1ccc(Br)cc1)N1CCN(C(=O)c2ccc(Cl)cc2)CC1` [Compound C1, (E)-3-(4-bromophenyl)-1-(4-(4-chlorobenzoyl)piperazin-1-yl) prop-2-en-1-one], the IC50 is less than 100 nM.

Turning to `O=C(/C=C/c1ccc(Br)cc1)N1CCN(C(=O)c2ccc(P(=O)(O)O)cc2)CC1` [Compound C3, (E)-(4-(4-(3-(4-bromophenyl)acryloyl)piperazine-1-carbonyl)phenyl)phosphonic acid], the IC50 was less than 100 nM.

For the molecule `Cc1ccc(C(=O)N2CCN(C(=O)/C=C/c3ccc(Br)cc3)CC2)cc1` [Compound C4, (2E)-3-(4-bromophenyl)-1-{4-[(4-methylphenyl)carbonyl]piperazinyl} prop-2-en-1-one], the IC50 was less than 100 nM.

As to `O=C(/C=C/c1ccc(Cl)c(Cl)c1)N1CCN(C(c2ccccc2)c2ccccc2)CC1` [Compound C5, (2E)-3-(3,4-dichlorophenyl)-1-[4-(diphenylmethyl)piperazinyl] prop-2-en-1-one], the IC50 was less than 100 nM.

With `O=C(/C=C/c1ccc(Cl)c(Cl)c1)N1CCN(C(=O)c2ccc(C(F)(F)F)cc2)CC1` [Compound C6, (2E)-3-(3,4-dichlorophenyl)-1-(4-{[4-(trifluoromethyl)phenyl]carbonyl}piperazinyl) prop-2-en-1-one], the IC50 was less than 100 nM.

As to `COc1ccc(C(=O)N2CCN(C(=O)C#Cc3ccc(Cl)cc3)CC2)cc1` [Compound C7, 3-(4-chlorophenyl)-1-{4-[(4-methoxyphenyl)carbonyl]piperazinyl}prop-2-yn-1-one], the IC50 is less than 100 nM.

For `COc1ccc(C(=O)N2CCN(C(=O)C#Cc3ccc(C)cc3)CC2)cc1` [Compound C8, 1-{4-[(4-methoxyphenyl)carbonyl]piperazinyl}-3-(4-methylphenyl)prop-2-yn-1-one], the IC50 is less than 100 nM.

Regarding `COc1ccc(C(=O)N2CCN(C(=O)C#Cc3ccc(C(F)(F)F)cc3)CC2)cc1` [Compound C9, 1-{4-[(4-methoxyphenyl)carbonyl]piperazinyl}-3-[4-(trifluoromethyl)phenyl]prop-2-yn-1-one], the IC50 was less than 100 nM.

Consider `COc1ccc(C(=O)N2CCN(C(=O)C#Cc3ccc(Br)cc3)CC2)cc1` [Compound C10, 3-(4-bromophenyl)-1-{4-[(4-methoxyphenyl)carbonyl]piperazinyl}prop-2-yn-1-one], for which the IC50 is less than 100 nM.

On to `COc1ccc(C(=O)N2CCN(C(=O)C=Cc3ccc(Cl)c(Cl)c3)CC2)cc1` [Compound C11, 3-(3,4-dichlorophenyl)-1-{4-[(4-methoxyphenyl)carbonyl]piperazinyl}prop-2-en-1-one], for which the IC50 is less than 100 nM.

Take `COc1ccc(C(=O)N2CCN(C(=O)C#Cc3ccc(Cl)c(Cl)c3)CC2)cc1` [Compound C12, 3-(3,4-dichlorophenyl)-1-{4-[(4-methoxyphenyl)carbonyl]piperazinyl}prop-2-yn-1-one]: the IC50 is less than 100 nM.

On to `O=C(/C=C/c1ccc(Br)cc1)N1CCN(C(=O)c2ccccc2)CC1` [Compound C14, (2E)-3-(4-bromophenyl)-1-[4-(phenylcarbonyl)piperazinyl]prop-2-en-1-one], for which the IC50 was less than 100 nM.

For `O=C(C#Cc1ccc(Cl)cc1)N1CCN(C(=O)c2ccc(Cl)cc2)CC1` [Compound C16, 3-(4-chlorophenyl)-1-{4-[(4-chlorophenyl)carbonyl]piperazinyl}prop-2-yn-1-one], the IC50 is less than 100 nM.

On to `COc1ccc(/C=C/C(=O)N2CCN(C(c3ccccc3)c3ccccc3)CC2)cc1` [Compound C17, (2E)-1-[4-(diphenylmethyl)piperazinyl]-3-(4-methoxyphenyl)prop-2-en-1-one], for which the IC50 was less than 100 nM.

`O=C(C#Cc1cccc(Cl)c1Cl)N1CCN(C(=O)c2ccc(F)cc2)CC1` [Compound C18, 3-(2,3-dichlorophenyl)-1-{4-[(4-fluorophenyl)carbonyl]piperazinyl}prop-2-yn-1-one]: the IC50 was less than 100 nM.

On to `O=C(/C=C/c1ccc(Cl)c(Cl)c1)N1CCN(C(=O)c2ccc(F)cc2)CC1` [Compound C20, (2E)-3-(3,4-dichlorophenyl)-1-{4-[(4-fluorophenyl)carbonyl]piperazinyl}prop-2-en-1-one], for which the IC50 was less than 100 nM.

As to `CCOc1ccc(/C=C/C(=O)N2CCN(C(c3ccccc3)c3ccccc3)CC2)cc1` [Compound C21, (2E)-1-[4-(diphenylmethyl)piperazinyl]-3-(4-ethoxyphenyl)prop-2-en-1-one], the IC50 was less than 100 nM.

Turning to `O=C(/C=C/c1ccc(F)cc1)N1CCN(S(=O)(=O)C2=Cc3ccccc3CC2)CC1` [Compound C22, (2E)-1-[4-(2-3,4-dihydronaphthylsulfonyl)piperazinyl]-3-(4-fluorophenyl)prop-2-en-1-one], the IC50 was less than 100 nM.

As for `O=C(/C=C/c1ccc(Cl)c(Cl)c1)N1CCN(C(=O)c2ccc(Cl)cc2)CC1` [Compound C23, (2E)-3-(3,4-dichlorophenyl)-1-{4-[(4-chlorophenyl)carbonyl]piperazinyl}prop-2-en-1-one], the IC50 was less than 100 nM.

As to `O=C(C#Cc1ccc(Cl)cc1)N1CCN(C(=O)c2ccc(F)cc2)CC1` [Compound C28, 3-(4-chlorophenyl)-1-{4-[(4-fluorophenyl)carbonyl]piperazinyl}prop-2-yn-1-one], the IC50 is less than 100 nM.

With `O=C(/C=C/c1ccc(C(F)(F)F)cc1)N1CCN(C(c2ccccc2)c2ccccc2)CC1` [Compound C29, (2E)-1-[4-(diphenylmethyl)piperazinyl]-3-[4-(trifluoromethyl)phenyl]prop-2-en-1-one], the IC50 was less than 100 nM.

Regarding `O=C(/C=C/c1ccc(Br)cc1)N1CCN(Cc2cc(F)cc(F)c2)CC1` [Compound C31, (2E)-1-{4-[(3,5-difluorophenyl)methyl]piperazinyl}-3-(4-bromophenyl)prop-2-en-1-one], the IC50 was less than 100 nM.
